Assay results reported in article PMC7457137, “An Integrated Pharmacokinetic Study of an Acanthopanax senticosus Extract Preparation by Combination of Virtual Screening, Systems Pharmacology, and Multi-Component Pharmacokinetics in Rats” (Frontiers in Pharmacology, 2020).
Like-named read-outs stand apart in the source and are kept apart here.

Assays:
[1] = rat, in vivo; cited from earlier work
[2] = Multi-component PK in rats after i.v. administration of ASEP; type: in vivo, Sprague-Dawley rats; conditions: for AUC0-∞ / AUC(0-t) / Cl / MRT0-t / MRT0-∞ / Vd / t 1/2 / AUC(0-inf) / clearance / MRT last / MRT inf / half-life: rat plasma, mean ± SD, n=3; for ingredient concentration in rat plasma: PK time points 2.5, 5, 10, 15 and 20 min after single i.v. 3.52 ml/kg of 5 times concentrated ASEP, preliminary examination; for AUC(0-inf): read-out: AUC0-∞; for clearance: read-out: Cl (converted); for MRT last: read-out: MRT0-t; for MRT inf: read-out: MRT0-∞; for half-life: read-out: t 1/2 (converted)
Procedure: The animal experiments were conducted in line with the Guide for the Care and Use of Laboratory Animals (published by the USA National Institutes of Health, NIH Publication no. 85-23, revised 1996), which were approved by the Animal Care and Use Committee of the College of Animal Science (College of Bee Science), Fujian Agriculture and Forestry University (Approval Number: […]2019004). […] All rats were acclimated to the facilities and environment for 7 days before the experiments. […] The gradient elution was carried out by the mobile phase water with 0.1% formic acid (A) and methanol (B). […] The column temperature and flow rate were at 35 °C and 0.5 ml/min, resepectively. 5 μl sample solution was injected for the HPLC-MS analysis. The electrospray ionization (ESI) source conditions were as follows: block heating temperature was kept at 400 °C; desolvation line temperature was set at 250 °C; dry gas (nitrogen) flow rate was kept at 15 L/min; and auxiliary gas (nitrogen) flow rate was 3 L/min. […] The plasma samples were separated by centrifugation, followed by storing at -20 °C before analysis. […] A DAS 3.0 software (Chinese Pharmacologic Society, Beijing, China) was used to calculate the noncompartmental PK parameters. All the results were presented as mean ± SD, and statistics analysis was done with a single-tailed Student's t test in the work.

[3] = Stability of the compounds in rat plasma (LC-MS validation); type: in vitro ADME
Description: According to the “Guidelines for non-clinical pharmacokinetics of drugs” issued by Centre for Drug Evaluation, National Medical Products Administration, China ([Guidelines for non-clinical pharmacokinetics of drugs, 2014]), the LC-MS method was validated by linearity, limits of detection (LOD), limits of quantification (LOQ), precision, accuracy, extraction recovery, matrix effect and stability of the 6 compounds in rat plasma. In brief, blank rat plasma was obtained from the other six rats. The standard mixture solution containing the 6 compounds (with the concentration of 1 mg/ml for each) was diluted with […] to prepare a series of working solution containing the 6 compounds (concentration level: 20, 50, 100, 250, 500 ng/ml and 1, 2.5, 5, 10, 25, 50, 100, 125 150, 200 μg/ml) and IS (2.5μg/ml). For calibration curve, 10 μl of the series of working solution containing the IS (2.5μg/ml) was added into 100 μl of blank plasma. Finally, 15 data points (2, 5, 10, 25, 50, 100, 250, 500 ng/ml and 1, 2.5, 5, 10, 12.5 15, 20 μg/ml) were used in the calibration curve linearity. Calibration curves were plotted by weighted linear regression of the peak area ratio of analyte to the IS against the related nominal concentration of the analyte. LOD and LOQ were defined as the detectable concentration at which the ratio of signal to noise was about 3 and 10, respectively ([Huang et al., 2019]). […] The extraction recovery and matrix effect were also assessed at the above-mentioned three concentration levels for the 6 ingredients in the spiked plasma samples ([Huang et al., 2019]). Stability was examined under the condition of setting un-treated plasma samples at ambient temperature for 6 h, and extracted plasma samples in auto-sampler for 10 h, as well as setting plasma samples for three freeze-thaw cycles and at −80°C for 15 days ([Guidelines for non-clinical pharmacokinetics of drugs, 2014]).

zebrafish model = tested on: zebrafish model; design: method as in Lin et al., 2017; Hu et al., 2018; conditions: ref Lin et al., 2017, Hu et al., 2018; cited from earlier work
[4] = tested on: human umbilical vein endothelial cells; design: method as in Lin et al., 2017; Hu et al., 2018; conditions: ref Lin et al., 2017, Hu et al., 2018; cited from earlier work
[5] = High group: single i.v. 3.52 ml/kg of 5 times concentrated ASEP
[6] = Low group: single i.v. 1.76 ml/kg of 5 times concentrated ASEP
[7] = extracted plasma samples, 10h in auto-sampler vials, high spiked level (HQC, 8000-16000 ng/mL)
[8] = extracted plasma samples, 10h in auto-sampler vials, low spiked level (LQC, 5-30 ng/mL)
[9] = extracted plasma samples, 10h in auto-sampler vials, middle spiked level (MQC, 400-1600 ng/mL)
[10] = rat plasma, 6h at room temperature, high spiked level (HQC, 8000-16000 ng/mL)
[11] = rat plasma, 6h at room temperature, low spiked level (LQC, 5-30 ng/mL)
[12] = rat plasma, 6h at room temperature, middle spiked level (MQC, 400-1600 ng/mL)
[13] = rat plasma, freeze-thaw stability (three cycles), high spiked level (HQC, 8000-16000 ng/mL)
[14] = rat plasma, freeze-thaw stability (three cycles), low spiked level (LQC, 5-30 ng/mL)
[15] = rat plasma, freeze-thaw stability (three cycles), middle spiked level (MQC, 400-1600 ng/mL)
[16] = rat plasma, long-term stability (-80℃,15 days), high spiked level (HQC, 8000-16000 ng/mL)
[17] = rat plasma, long-term stability (-80℃,15 days), low spiked level (LQC, 5-30 ng/mL)
[18] = rat plasma, long-term stability (-80℃,15 days), middle spiked level (MQC, 400-1600 ng/mL)
[19] = male, Sprague-Dawley, rat, plasma, iv, 1.76 ml/kg, Low group: single i.v. 1.76 ml/kg of 5 times concentrated ASEP
[20] = male, Sprague-Dawley, rat, plasma, iv, 3.52 ml/kg, High group: single i.v. 3.52 ml/kg of 5 times concentrated ASEP

| AUC0-∞ [2, 5] | AUC(0-t) [2, 5] | Cl [2, 5] | MRT0-∞ [2, 5] | AUC0-∞ [2, 6] | AUC(0-t) [2, 6] | Cl [2, 6] | MRT0-t [2, 6] | MRT0-∞ [2, 6] | Compound | ingredient concentration in rat plasma [2] | Stability, RE [3, 7] | Stability, RE [3, 8] | Stability, RE [3, 9] | Stability, RE [3, 10] | Stability, RE [3, 11] | Stability, RE [3, 12] | Stability, RE [3, 13] | Stability, RE [3, 14] | Stability, RE [3, 15] | Stability, RE [3, 16] | further results |
| --- | --- | --- | --- | --- | --- | --- | --- | --- | --- | --- | --- | --- | --- | --- | --- | --- | --- | --- | --- | --- | --- |
|  |  |  |  |  |  |  |  |  | COc1cc2ccc(=O)oc2c(OC)c1O [isofraxidin] |  |  |  |  |  |  |  |  |  |  |  | elimination in cerebral ischemia-reperfusion rats compared with the normal group [1]: changed |
| 4,013.66 ± 42.67 h·ng/ml | 4,006.71 ± 42.76 h·ng/ml | 0.86 ± 0.01 L/h | 21 ± 0 min | 2,249.80 ± 109.69 h·ng/ml | 2,244.68 ± 109.65 h·ng/ml | 0.77 ± 0.04 L/h | 26.4 ± 1.2 min | 27.6 ± 1.2 min | O=C(/C=C/c1ccc(O)c(O)c1)O[C@@H]1C[C@@](O)(C(=O)O)C[C@@H](O)[C@@H]1O [5-CQA, 5-caffeoylquinic acid] |  |  |  |  |  |  |  |  |  |  |  | MRT0-t [2, 5]: 19.8 ± 0 min |
| 3,161.48 ± 69.18 h·ng/ml | 3,156.93 ± 68.74 h·ng/ml | 0.80 ± 0.02 L/h | 25.8 ± 0.6 min | 1,750.59 ± 64.24 h·ng/ml | 1,747.89 ± 64.52 h·ng/ml | 0.73 ± 0.03 L/h | 21.6 ± 0 min | 22.2 ± 0 min | O=C(/C=C/c1ccc(O)c(O)c1)OC1[C@H](O)CC(O)(C(=O)O)C[C@H]1O (stereo partly drawn) [4-CQA] | > 0.5 ng/mL | -6.85% | -16.89% | 14.39% | -7.63% | -6.42% | 9.60% | -3.17% | 19.90% | -0.64% | -1.64% | Vd [2, 5]: 0.76 ± 0.02 L; t 1/2 [2, 5]: 39.6 ± 0.6 min; Vd [2, 6]: 0.98 ± 0.11 L; t 1/2 [2, 6]: 55.8 ± 4.8 min; Stability, RE [3, 17]: 17.58%; Stability, RE [3, 18]: 14.43% |
|  |  |  |  |  |  |  |  |  | O=C(O)c1ccc(O)c(O)c1 [PCA, protocatechuic acid] | > 0.5 ng/mL | -5.63% | -2.62% | -6.89% | 0.16% | -6.60% | -4.01% | -0.14% | -0.31% | 0.85% | -10.60% | effect on VEGF-induced angiogenesis (zebrafish model): significant inhibitory effects; effect on VEGF-induced angiogenesis [4]: significant inhibitory effects; AUC(0-t) ([2]; male, Sprague-Dawley, rat, plasma, iv, 1.76 ml/kg, Low group: single i.v. 1.76 ml/kg of 5 times concentrated ASEP, read-out: AUC0-t): 202 ± 4.82 ng·h/mL; AUC(0-inf) [2, 19]: 204 ± 5.08 ng·h/mL; clearance [2, 19]: 96 mL/min; MRT last [2, 19]: 15 ± 0.6 min; MRT inf [2, 19]: 16.8 ± 1.2 min; Vd ([2]; male, Sprague-Dawley, rat, plasma, iv, 1.76 ml/kg, Low group: single i.v. 1.76 ml/kg of 5 times concentrated ASEP, read-out: Vd): 2.91 ± 0.07 L; half-life [2, 19]: 21 ± 0.6 min; AUC(0-t) ([2]; male, Sprague-Dawley, rat, plasma, iv, 3.52 ml/kg, High group: single i.v. 3.52 ml/kg of 5 times concentrated ASEP, read-out: AUC0-t): 308 ± 14.2 ng·h/mL; AUC(0-inf) [2, 20]: 310 ± 14.1 ng·h/mL; clearance [2, 20]: 126 mL/min; MRT last [2, 20]: 18 ± 0.6 min; MRT inf [2, 20]: 19.2 ± 0.6 min; Vd ([2]; male, Sprague-Dawley, rat, plasma, iv, 3.52 ml/kg, High group: single i.v. 3.52 ml/kg of 5 times concentrated ASEP, read-out: Vd): 4.39 ± 0.22 L; half-life [2, 20]: 24 min; Stability, RE [3, 17]: -9.72%; Stability, RE [3, 18]: -3.16% |
